The source of these data is the NIST ThermoML archive (doi:10.1016/j.tca.2012.11.004).

SMILES strings stand for the structures. ± gives the expanded uncertainty stated by the source.

The conditions of data set [1]: 298.15 K; 101.33 kPa; Liquid; Vibrating tube method.
Data set [2] can be described thus: refractive index (Na D-line) (dimensionless). The conditions noted are these: 101.33 kPa, Liquid, Standard Abbe refractometry.

A word on the mass density: it is the mass of a sample divided by its volume. By refractive index is commonly meant the speed of light in vacuum divided by its phase velocity in the sample. For the molecule `CN(C)C=O` [dimethylformamide], the mass density in data set [1] came to 943.9 ± 0.11 kg/m3. The refractive index in data set [2] (298.15 K) is reported as 1.4281 ± 0.0007.
For the molecule `NC=O` [formamide], the mass density in data set [1] is on record as 1129.16 ± 0.16 kg/m3. For the same molecule, in data set [2] (298.15 K), the refractive index is listed as 1.4465 ± 0.0007.
For `CNC=O` [N-methylformamide] the same measures were 998.94 ± 0.23 kg/m3 and 1.4302 ± 0.0007.
On to `CC(=O)N(C)C` [N,N-dimethylethanamide], for which the mass density in data set [1] worked out at 936.38 ± 0.08 kg/m3. Moreover, in data set [2] (298.1 K), the refractive index is 1.4358 ± 0.0007.
